Measurements reported in patent US5686486A, “4-hydroxy-benzopyran-2-ones and 4-hydroxy-cycloalkyl[b]pyran-2-ones useful to treat retroviral infections” (priority 1995, dated 1997).
Counter-ions that a name gives are not always drawn. Like-named read-outs stand apart in the source and are kept apart here.

Molecular target: HIV-1 protease (Human immunodeficiency virus type 1 group M subtype B, UniProt P04585)
Assay: biochemical
Conditions: for inhibition at 1 µM: read-out: HIV-1 Protease % Inhib, dose 1.000 uM; for inhibition at 100 µM: read-out: HIV-1 Protease % Inhib, dose 100.000 uM; for IC50: HIV-1 Protease IC50
Summary of the method: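 Percent inhibition derived from fluorescent cleavage product separated by filtration after streptavidin-bead capture of intact biotin/FITC substrate. Reaction: enzyme (10 μl, 0.1 μM stock) with substrate (20 μl, 0.2 μM stock) and compound, 1 h at room temperature in dark, pH 5.5 acetate buffer with 1.0 M NaCl and 0.05% NP-40.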

[1] = dose 0.370 uM, read-out: HIV-1 Protease % Inhib
[2] = dose 1.100 uM, read-out: HIV-1 Protease % Inhib
[3] = dose 3.300 uM, read-out: HIV-1 Protease % Inhib
[4] = dose 10.000 uM, read-out: HIV-1 Protease % Inhib
[5] = dose 30.000 uM, read-out: HIV-1 Protease % Inhib
[6] = read-out: HIV-1 Protease % Inhib, dose 10.000 uM
[7] = read-out: HIV-1 Protease % Inhib, dose 0.370 uM
[8] = read-out: HIV-1 Protease % Inhib, dose 1.100 uM
[9] = read-out: HIV-1 Protease % Inhib, dose 3.300 uM
[10] = read-out: HIV-1 Protease % Inhib, dose 30.000 uM
[11] = read-out: HIV-1 Protease % Inhib, dose 0.123 uM

## O=c1oc2c(c(O)c1C(c1cccc(NS(=O)(=O)CCCN3CCOCC3)c1)C1CC1)CCCCCC2 (stereo not drawn) [Example 365B (Second Title Compound), N-[3-[Cyclopropyl(5,6,7,8,9,10-hexahydro-4-hydroxy-2-oxo-2H-cycloocta[b]pyran-3-yl)methyl]phenyl]-4-morpholinepropanesulfonamide]
Dose 0.123 uM, read-out: HIV-1 Protease % Inhib
  inhibition at 0.123 µM: 33.2%
[1]
  inhibition at 0.37 µM: 68.2%
[2]
  inhibition at 1.1 µM: 94%
[3]
  inhibition at 3.3 µM: 87.3%
[4]
  inhibition at 10 µM: 92.6%
[5]
  inhibition at 30 µM: 89.1%

## Nc1cc(N)cc(C(c2c(O)c3c(oc2=O)CCCCCC3)C2CC2)c1 (stereo not drawn) [Example 484, 3-[Cyclopropyl-(3,5-diamino-phenyl)-methyl]-4-hydroxy-5,6,7,8,9,10-hexahydro-cycloocta[b]pyran-2-one]
[3]
  inhibition at 3.3 µM: 17.7%
[4]
  inhibition at 10 µM: 37.2%
[5]
  inhibition at 30 µM: 51.6%

## O=c1oc2c(c(O)c1C(c1cccc(N3CCCS3(=O)=O)c1)C1CC1)CCCCCC2 [Example 365B (First Title Compound), 2H-Cycloocta[b]pyran-2-one, 3-[cyclopropyl[3-(2-isothiazolidinyl)phenyl]methyl]-5,6,7,8,9,10-hexahydro-4-hydroxy-,S,S-dioxide]
[4]
  inhibition at 10 µM: 83.8%
[5]
  inhibition at 30 µM: 78.8%

## CCC(c1cccc(Br)c1)c1c(O)c2ccccc2oc1=O (stereo not drawn) [Example 71, 3-(1'-(3-Bromophenyl)propyl)-4-hydroxycoumarin]
  inhibition at 1 µM: < 10%
  inhibition at 100 µM: 80%
[6]
  inhibition at 10 µM: 15%

## CCCC(c1ccc(CC)cc1)c1c(O)c2ccccc2oc1=O (stereo not drawn) [Example 19, 3-(1-(4-Ethylphenyl)-butyl)-4-hydroxycoumarin]
  inhibition at 1 µM: < 10%
[6]
  inhibition at 10 µM: 36.8%

## O=c1oc2c(c(O)c1C(c1cccc(NS(=O)(=O)c3cc(Cl)ccc3Cl)c1)C1CC1)CCCCCC2 (stereo not drawn) [Example 271, 2,5-Dichloro-N-[3-[cyclopropyl(5,6,7,8,9,10-hexahydro-4-hydroxy-2-oxo-2H-cycloocta[b]pyran-3-yl)methyl]phenyl]-benzenesulfonamide]
[7]
  inhibition at 0.37 µM: 16.7%
[8]
  inhibition at 1.1 µM: 47.5%
[9]
  inhibition at 3.3 µM: 75.3%
[6]
  inhibition at 10 µM: 88.8%
[10]
  inhibition at 30 µM: 94.2%

## CC(C)c1ccc(S(=O)(=O)Nc2cccc(C(c3c(O)c4c(oc3=O)CCCCCC4)C3CC3)c2)cc1 (stereo not drawn) [Example 345, N-[3-[Cyclopropyl(5,6,7,8,9,10-hexahydro-4-hydroxy-2-oxo-2H-cycloocta[b]pyran-3-yl)methyl]phenyl]-4-(1-methylethyl)-benzenesulfonamide]
[11]
  inhibition at 0.123 µM: 50%
[7]
  inhibition at 0.37 µM: 77%
[8]
  inhibition at 1.1 µM: 90.4%
[9]
  inhibition at 3.3 µM: 101%
[6]
  inhibition at 10 µM: 105%
[10]
  inhibition at 30 µM: 91.8%

## CC(c1cccc(C(=O)NCc2ccccn2)c1)c1c(O)c2ccccc2oc1=O (stereo not drawn) [Example 27, Coumarin, 4-hydroxy-3-[1-[3-[[[(2-pyridinyl)methyl]amino]carbonyl]phenyl]ethyl]-]
  inhibition at 1 µM: < 10%
  inhibition at 100 µM: 72%
[6]
  inhibition at 10 µM: < 10%

## O=c1oc2c(c(O)c1C(c1ccccc1)C1CC1)CCCCC2CC1CCOC1 (stereo not drawn) [Example 191, 3-(Cyclopropylphenylmethyl)-6,7,8,9-tetrahydro-4-hydroxy-9-[(tetrahydro-3-furanyl)methyl]-cyclohepta[b]pyran-2(5H)-one]
[1]
  inhibition at 0.37 µM: 16.9%
[2]
  inhibition at 1.1 µM: 55%
[3]
  inhibition at 3.3 µM: 93.3%
[4]
  inhibition at 10 µM: 101%
[5]
  inhibition at 30 µM: 100%

## Cc1ccc(S(=O)(=O)Nc2cccc(C(c3c(O)c4c(oc3=O)CCCCCC4)C3CC3)c2)cc1 (stereo not drawn) [Example 325, N-[3-[Cyclopropyl(5,6,7,8,9,10-hexahydro-4-hydroxy-2-oxo-2H-cycloocta[b]pyran-3-yl)methyl]phenyl]4-methyl-benzenesulfonamide]
[11]
  inhibition at 0.123 µM: 59.8%
[7]
  inhibition at 0.37 µM: 86.6%
[8]
  inhibition at 1.1 µM: 95.6%
[9]
  inhibition at 3.3 µM: 105%
[6]
  inhibition at 10 µM: 115%
[10]
  inhibition at 30 µM: 115%

## O=c1oc2c(c(O)c1C(c1cccc(NS(=O)(=O)c3ccc(C(F)(F)F)cc3)c1)C1CC1)CCCCCC2 (stereo not drawn) [Example 267, N-[3-[Cyclopropyl(5,6,7,8,9,10-hexahydro-4-hydroxy-2-oxo-2H-cycloocta[b]pyran-3-yl)methyl]phenyl]-4-(trifluoromethyl)-benzenesulfonamide]
[11]
  inhibition at 0.123 µM: 71.5%
[7]
  inhibition at 0.37 µM: 83.9%
[8]
  inhibition at 1.1 µM: 92%
[9]
  inhibition at 3.3 µM: 107%
[6]
  inhibition at 10 µM: 107%
[10]
  inhibition at 30 µM: 110%

## O=c1oc2ccccc2c(O)c1C(C1CC1)C1CC1 [Example 104, 3-(dicyclopropyl)methyl-4-hydroxycoumarin]
  IC50: 6.74 µM
  inhibition at 1 µM: 12.2%
  inhibition at 100 µM: 106%
[6]
  inhibition at 10 µM: 68.7%

## CC(c1cccc(C(=O)NC2c3ccccc3CC2O)c1)c1c(O)c2ccccc2oc1=O (stereo not drawn) [Example 29, Benzamide, N-(2,3-dihydro-2-hydroxy-1H-inden-1-yl)-3-[1-(4-hydroxy-2-oxo-2H-1-benzopyran-3-yl)ethyl]-]
  inhibition at 1 µM: < 10%
  inhibition at 100 µM: 98.4%
[6]
  inhibition at 10 µM: 54.2%

## CCC(c1cccc(C(=O)NC2c3ccccc3CC2O)c1)c1c(O)c2ccccc2oc1=O (stereo not drawn) [Example 143, N-(2-Hydroxy-indan-1-yl)-3-(1-(4-hydroxy-2-oxo-2H-chromen-3-yl)-propyl)-benzamide]
  inhibition at 1 µM: 10.8%
  inhibition at 100 µM: 92.1%
[6]
  inhibition at 10 µM: 77.1%

## CCC(c1cccc(NC(=O)CCn2ccc3ccccc32)c1)c1c(O)c2ccccc2oc1=O (stereo not drawn) [Example 63, Coumarin, 4-hydroxy-3-[1-[3-[[3-(^1 H-indol-1-yl)-1-oxopropyl]amino]phenyl]propyl]-]
  IC50: 2 µM
  inhibition at 1 µM: 77.6%
  inhibition at 100 µM: 111%
[6]
  inhibition at 10 µM: 90.3%

## CCC(c1cccc(NC(=O)CC[C@H](N)C(=O)O)c1)c1c(O)c2ccccc2oc1=O (stereo partly drawn) [Example 52, L-Glutamine, N-[3-[1-(4-hydroxy-2-oxo-2H-1-benzopyran-3-yl)propyl]phenyl]-, mono(trifluoroacetate) (salt)]
  IC50: 3.1 µM
  inhibition at 1 µM: 26.8%
  inhibition at 100 µM: 120%
[6]
  inhibition at 10 µM: 81.5%

## CC(c1cccc(C(=O)NCc2ccccc2)c1)c1c(O)c2ccccc2oc1=O (stereo not drawn) [Example 28, Coumarin, 4-hydroxy-3-[1-[3-[[(phenylmethyl)amino]carbonyl]phenyl]ethyl]-]
  inhibition at 1 µM: < 10%
  inhibition at 100 µM: 81%
[6]
  inhibition at 10 µM: 17.9%

## CCC(c1cccc(NC(=O)CCc2ccc(O)cc2)c1)c1c(O)c2ccccc2oc1=O (stereo not drawn) [Example 62, Coumarin, 4-hydroxy-3-[1-[3-[[3-(4-hydroxyphenyl)-1-oxopropyl]amino]phenyl]propyl]-]
  inhibition at 1 µM: < 10%
  inhibition at 100 µM: 78.3%
[6]
  inhibition at 10 µM: 10.6%

## O=c1oc2c(c(O)c1C(c1cccc(NS(=O)(=O)c3ccc(Br)cc3)c1)C1CC1)CCCCCC2 (stereo not drawn) [Example 272, 4-Bromo-N-[3-[cyclopropyl(5,6,7,8,9,10-hexahydro-4-hydroxy-2-oxo-2H-cycloocta[b]pyran-3-yl)methyl]phenyl]-benzenesulfonamide]
[11]
  inhibition at 0.123 µM: 67.1%
[7]
  inhibition at 0.37 µM: 85.2%
[8]
  inhibition at 1.1 µM: 95.3%
[9]
  inhibition at 3.3 µM: 96.2%
[6]
  inhibition at 10 µM: 101%
[10]
  inhibition at 30 µM: 104%

## O=C(Nc1cccc(C(c2c(O)c3c(oc2=O)CCCCCC3)C2CC2)c1)c1ccc(Cl)cc1 (stereo not drawn) [Example 206, Benzamide, 4-chloro-N-[3-[cyclopropyl(5,6,7,8,9,10-hexahydro-4-hydroxy-2-oxo-2H-cycloocta[b]pyran-3-yl)methyl]phenyl]-]
[1]
  inhibition at 0.37 µM: 17.9%
[2]
  inhibition at 1.1 µM: 48%
[3]
  inhibition at 3.3 µM: 76.4%
[4]
  inhibition at 10 µM: 95.8%
[5]
  inhibition at 30 µM: 93.1%

## N#Cc1ccc(S(=O)(=O)NCc2ccc(C(c3c(O)c4c(oc3=O)CCCCCC4)C3CC3)o2)cc1 (stereo not drawn) [Example 391]
[3]
  inhibition at 3.3 µM: 28.3%
[4]
  inhibition at 10 µM: 59.1%
[5]
  inhibition at 30 µM: 84.2%

## O=c1oc2ccccc2c(O)c1C(CCO)c1ccccc1 (stereo not drawn) [Example 160, 4-Hydroxy-3-(3-hydroxy-1-phenyl-propyl)-chromen-2-one]
read-out: HIV-1 Protease % Inhib, dose 0.410 uM
  inhibition at 0.41 µM: < 10%
read-out: HIV-1 Protease % Inhib, dose 1.230 uM
  inhibition at 1.23 µM: < 10%
read-out: HIV-1 Protease % Inhib, dose 3.700 uM
  inhibition at 3.7 µM: < 10%
read-out: HIV-1 Protease % Inhib, dose 11.000 uM
  inhibition at 11 µM: 14.2%
read-out: HIV-1 Protease % Inhib, dose 33.000 uM
  inhibition at 33 µM: 40.4%
  inhibition at 100 µM: 82.6%

## CCC(c1ccccc1)c1c(O)c2ccc(OCCOCCOC)cc2oc1=O (stereo not drawn) [Example 151, 4-Hydroxy-7-(2-(2-methoxy-ethoxy)-ethoxy)-3-(1-phenyl-propyl)-chromen-2-one]
  inhibition at 1 µM: 29.1%
  inhibition at 100 µM: 92.4%
[6]
  inhibition at 10 µM: 82.8%

## O=C(Nc1ccccc1)Nc1cccc(C(c2c(O)c3c(oc2=O)CCCCCC3)C2CC2)c1 (stereo not drawn) [Example 224, N-[3-[Cyclopropyl(5,6,7,8,9,10-hexahydro-4-hydroxy-2-oxo-2H-cycloocta[b]pyran-3-yl)methyl]phenyl]-N'-phenyl-urea]
[1]
  inhibition at 0.37 µM: 10.9%
[2]
  inhibition at 1.1 µM: 42.4%
[3]
  inhibition at 3.3 µM: 72.3%
[4]
  inhibition at 10 µM: 83.7%
[5]
  inhibition at 30 µM: 95.3%

## O=c1oc2ccccc2c(O)c1CC(c1ccccc1)c1ccccc1 [Example 4, 4-Hydroxy-3-(2,2-diphenylethyl)-coumarin]
  inhibition at 1 µM: < 10%
  inhibition at 100 µM: 45.3%
[6]
  inhibition at 10 µM: 12.4%
